Our source for the TGI values is PubChem BioAssay (NCI).

Some test systems named below: KM12 colon; HCC-2998 colon; HCT-15 colon; DU-145 prostate; OVCAR-4 ovarian; OVCAR-5 ovarian; NCI-H522 lung; HS 578T breast; SF-295 CNS; HOP-62 NSCLC.
What all share (assay): NCI-60 cell line screen, 48 h

SMILES strings stand for the structures.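 Exposure lasted 48 hours, with cells grown in 96-well plates and compounds tested at five concentrations. TGI marks complete inhibition of growth.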 Where only a bound is given, the exact number is not on record here.

Take `CSc1c(C#N)c(N)n(-c2ccc(Cl)cc2)c(=O)c1C#N`: the TGI in the test on KM12 colon, in the test on HCC-2998 colon, in the test on HCT-15 colon, in the test on DU-145 prostate, with OVCAR-4 ovarian and with OVCAR-5 ovarian was greater than 100 µM each time. Besides, the TGI in the test on NCI-H522 lung and in the test on HS 578T breast was greater than 100 µM throughout.
Take `Nc1nc2c(C(=O)O)c3ccc([N+](=O)[O-])cc3c(=O)n2c2ccccc12`: the TGI in the test with SF-295 CNS was 95.5 µM; in the test with KM12 colon, greater than 100 µM; with HCC-2998 colon, greater than 100 µM; in the test with HCT-15 colon it was 71.8 µM; with DU-145 prostate, 49.4 µM; in the test on OVCAR-4 ovarian, greater than 100 µM. Moreover, the TGI with OVCAR-5 ovarian was greater than 100 µM; in the test on HOP-62 NSCLC, greater than 100 µM; in the test with NCI-H522 lung, 44.1 µM; with HS 578T breast, 70.6 µM.
As to `N#CCCC1(CCC#N)CCCCCCCCC(CCC#N)(CCC#N)C(O)C1O` (configuration not stated), the TGI in the test with SF-295 CNS, with KM12 colon, with HCC-2998 colon, in the test on HCT-15 colon, in the test on DU-145 prostate and in the test with OVCAR-4 ovarian was greater than 100 µM throughout. Also, the TGI with OVCAR-5 ovarian is greater than 100 µM; with HOP-62 NSCLC, greater than 100 µM; in the test on NCI-H522 lung, greater than 100 µM; in the test on HS 578T breast, 91.3 µM.
In the case of `CC(C)/C(Cl)=N/OC(=O)Nc1ccc(Cl)c(Cl)c1`, the TGI in the test with SF-295 CNS was 32.2 µM; with KM12 colon, 32.6 µM; in the test on HCC-2998 colon it was 28.6 µM; in the test on HCT-15 colon, 5.59 µM; in the test with DU-145 prostate, 32.5 µM; in the test with OVCAR-4 ovarian it was 22.5 µM. Besides, the TGI in the test with OVCAR-5 ovarian came out at 30.2 µM; in the test with HOP-62 NSCLC it was 33.1 µM; with NCI-H522 lung, 3.25 µM; in the test on HS 578T breast, 54.5 µM.
Regarding `CCOC(=O)C1CCCCN1C(=O)Cc1c[nH]c2ccccc12` (configuration not stated), the TGI in the test on SF-295 CNS, in the test on KM12 colon, in the test with HCC-2998 colon, in the test with HCT-15 colon, with DU-145 prostate and in the test with OVCAR-4 ovarian was greater than 100 µM each time. For the same compound, the TGI in the test on OVCAR-5 ovarian, in the test on HOP-62 NSCLC, with NCI-H522 lung and with HS 578T breast was greater than 100 µM throughout.
`Nc1ncnc2c1ncn2[C@@H]1O[C@H](COC(c2ccccc2)(c2ccccc2)c2ccccc2)[C@@H](OC(=S)Oc2ccccc2)[C@@H]1F`: the TGI in the test with SF-295 CNS stood at 31.1 µM; in the test with KM12 colon, 29.1 µM; in the test with HCC-2998 colon, 28.5 µM; in the test on HCT-15 colon, 12.5 µM; in the test on DU-145 prostate it was 30.2 µM; in the test on OVCAR-4 ovarian it was 57.9 µM. In addition, the TGI is 37 µM in the test on OVCAR-5 ovarian, 46 µM with HOP-62 NSCLC, 5.32 µM with NCI-H522 lung and 25.1 µM in the test with HS 578T breast.
Take `CN=C(Nc1cccc(C(F)(F)F)c1)SCc1ccc(N=C=S)cc1`: the TGI with SF-295 CNS was 30.2 µM; in the test with KM12 colon, 29.3 µM; with HCC-2998 colon it was 29 µM; with HCT-15 colon it was 20.8 µM; with DU-145 prostate, 31.2 µM; with OVCAR-4 ovarian it was 26.8 µM. Besides, the TGI in the test on OVCAR-5 ovarian amounted to 30.2 µM; with HOP-62 NSCLC, 31.7 µM; in the test with NCI-H522 lung, 22.4 µM; with HS 578T breast, 54.2 µM.
Take `CC[C@@]1(O)C(=O)OCc2c1cc1n(c2=O)Cc2c-1nc1ccccc1c2/C=N\NC(=O)C(N)CCSC` (some centres not stated): the TGI is 0.315 µM with SF-295 CNS; 5.26 µM in the test with HCC-2998 colon; greater than 90.3 µM with HCT-15 colon; greater than 100 µM in the test with DU-145 prostate; 3.24 µM in the test on OVCAR-4 ovarian; greater than 23.7 µM with OVCAR-5 ovarian. Moreover, the TGI was 2.02 µM in the test on NCI-H522 lung and greater than 100 µM in the test with HS 578T breast.
In the case of `Nc1ccc(Nc2cc(=O)[nH]c(=O)[nH]2)cc1Cl`, the TGI in the test with SF-295 CNS, in the test with HCC-2998 colon, with HCT-15 colon, with DU-145 prostate, with OVCAR-4 ovarian and in the test with OVCAR-5 ovarian was greater than 100 µM throughout. In addition, the TGI in the test with NCI-H522 lung and with HS 578T breast was greater than 100 µM throughout.
`CN(C)CCc1c2c(nc3ccccc13)C(=O)c1cccnc1C2=O`: the TGI in the test with SF-295 CNS was determined as 1.03 µM; with KM12 colon it was 1.38 µM; with HCC-2998 colon, 2.71 µM; with HCT-15 colon it was 0.927 µM; with DU-145 prostate it was 1.22 µM; in the test with OVCAR-4 ovarian it was 2.79 µM. The TGI amounted to 3.44 µM in the test on OVCAR-5 ovarian, 0.654 µM with NCI-H522 lung and 4.15 µM with HS 578T breast.
On to `COc1cccc(/N=N/C(=NNC(=O)c2ccc(C)cc2)c2ccc(N(C)C)cc2)c1`, for which the TGI in the test on SF-295 CNS, with KM12 colon, in the test with HCC-2998 colon, in the test with HCT-15 colon, in the test on DU-145 prostate and with OVCAR-4 ovarian was greater than 100 µM in each case. Further, the TGI in the test with OVCAR-5 ovarian, in the test with NCI-H522 lung and in the test with HS 578T breast was greater than 100 µM in each case.
